# Reference: PubChem BioAssay AID2060609 (Molecular Pharmacology Branch, DTP, NCI, 2025)
# pIC50: −log10 of the molar value.
# System: 855422-203-R-J1-PDC complex spheroids, viability
# Assay: Anticancer human tumor 855422-203-R-J1-PDC patient-derived bladder carcinoma cell line growth inhibition [CLK]
# Conditions: for pIC50: curve of first compound; for viability, T/C: stronger effect = lower value
# Summary of the method: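 Multi-cell-type spheroids combined patient-derived tumor cells with HUVEC endothelial cells and human mesenchymal stem cells. Paired agents were dosed in half-log steps down from about clinical Cmax, or from 10 microM where Cmax was unknown.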
# [1] = second compound 0.0316 µM, first compound 0.0316 µM
# [2] = second compound 0.0316 µM, first compound 0.1 µM
# [3] = second compound 0.0316 µM, first compound 0.316 µM
# [4] = second compound 0.0316 µM, first compound 1 µM
# [5] = second compound 0.0316 µM, first compound 3.16 µM
# [6] = second compound 0.0316 µM, first compound 10 µM
# [7] = second compound 0.1 µM, first compound 0.0316 µM
# [8] = second compound 0.1 µM, first compound 0.1 µM
# [9] = second compound 0.1 µM, first compound 0.316 µM
# [10] = second compound 0.1 µM, first compound 1 µM
# [11] = second compound 0.1 µM, first compound 3.16 µM
# [12] = second compound 0.1 µM, first compound 10 µM
# [13] = second compound 0.316 µM, first compound 0.0316 µM
# [14] = second compound 0.316 µM, first compound 0.1 µM
# [15] = second compound 0.316 µM, first compound 0.316 µM
# [16] = second compound 0.316 µM, first compound 1 µM
# [17] = second compound 0.316 µM, first compound 3.16 µM
# [18] = second compound 0.316 µM, first compound 10 µM
# [19] = second compound 1 µM, first compound 0.0316 µM
# [20] = second compound 1 µM, first compound 0.1 µM
# [21] = second compound 1 µM, first compound 0.316 µM
# [22] = second compound 1 µM, first compound 1 µM
# [23] = second compound 1 µM, first compound 3.16 µM
# [24] = second compound 1 µM, first compound 10 µM
# [25] = second compound 3.16 µM, first compound 0.0316 µM
# [26] = second compound 3.16 µM, first compound 0.1 µM
# [27] = second compound 3.16 µM, first compound 0.316 µM
# [28] = second compound 3.16 µM, first compound 1 µM
# [29] = second compound 3.16 µM, first compound 3.16 µM
# [30] = second compound 3.16 µM, first compound 10 µM
# [31] = second compound 10 µM, first compound 0.0316 µM
# [32] = second compound 10 µM, first compound 0.1 µM
# [33] = second compound 10 µM, first compound 0.316 µM
# [34] = second compound 10 µM, first compound 1 µM
# [35] = second compound 10 µM, first compound 3.16 µM
# [36] = second compound 10 µM, first compound 10 µM
# 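Note: spheroids exposed to drugs for seven days before readout.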
# 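Throughout, for viability, T/C: 100% = DMSO vehicle control wells.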
smiles,measurement,setting,value
C=C(F)C(=O)N1CCN(c2nc(OCC3CCCN3C)nc3c2CCN(c2cccc4cccc(Cl)c24)C3)CC1CC#N (centres undefined) + CNC(=O)c1ccc(Nc2nc(OC3CCCC3)c3c(-c4ccc5nc(C)oc5c4)c[nH]c3n2)c(OC)c1,pIC50,second compound 0.0316 µM,5.60
same,pIC50,second compound 0.1 µM,> 7.50
same,pIC50,second compound 0.316 µM,> 7.50
same,pIC50,second compound 1 µM,> 7.50
same,pIC50,second compound 3.16 µM,> 7.50
same,pIC50,second compound 10 µM,> 7.50
same,"viability, T/C",[1],83.1%
same,"viability, T/C",[2],88.6%
same,"viability, T/C",[3],81.8%
same,"viability, T/C",[4],132%
same,"viability, T/C",[5],38.1%
same,"viability, T/C",[6],0.16%
same,"viability, T/C",[7],24.2%
same,"viability, T/C",[8],21%
same,"viability, T/C",[9],23.7%
same,"viability, T/C",[10],27.5%
same,"viability, T/C",[11],10.2%
same,"viability, T/C",[12],0.11%
same,"viability, T/C",[13],16.6%
same,"viability, T/C",[14],19.6%
same,"viability, T/C",[15],19.9%
same,"viability, T/C",[16],18.7%
same,"viability, T/C",[17],10.1%
same,"viability, T/C",[18],0.07%
same,"viability, T/C",[19],21.5%
same,"viability, T/C",[20],15.8%
same,"viability, T/C",[21],19.4%
same,"viability, T/C",[22],18.6%
same,"viability, T/C",[23],8.14%
same,"viability, T/C",[24],0.07%
same,"viability, T/C",[25],18.5%
same,"viability, T/C",[26],14.9%
same,"viability, T/C",[27],14.8%
same,"viability, T/C",[28],20.5%
same,"viability, T/C",[29],9.57%
same,"viability, T/C",[30],1.06%
same,"viability, T/C",[31],18.1%
same,"viability, T/C",[32],21.6%
same,"viability, T/C",[33],21%
same,"viability, T/C",[34],16.9%
same,"viability, T/C",[35],7.87%
same,"viability, T/C",[36],8.64%
C=CC(=O)N1CCN(c2nc(=O)n(-c3c(C)ccnc3C(C)C)c3nc(-c4c(O)cccc4F)c(F)cc23)C(C)C1 (centres undefined) + CNC(=O)c1ccc(Nc2nc(OC3CCCC3)c3c(-c4ccc5nc(C)oc5c4)c[nH]c3n2)c(OC)c1,pIC50,second compound 0.0316 µM,< 5.00
same,pIC50,second compound 0.1 µM,> 7.50
same,pIC50,second compound 0.316 µM,> 7.50
same,pIC50,second compound 1 µM,> 7.50
same,pIC50,second compound 3.16 µM,> 7.50
same,pIC50,second compound 10 µM,> 7.50
same,"viability, T/C",[1],78.8%
same,"viability, T/C",[2],91.5%
same,"viability, T/C",[3],104%
same,"viability, T/C",[4],103%
same,"viability, T/C",[5],179%
same,"viability, T/C",[6],127%
same,"viability, T/C",[7],47.5%
same,"viability, T/C",[8],50.9%
same,"viability, T/C",[9],45.8%
same,"viability, T/C",[10],41.6%
same,"viability, T/C",[11],43.5%
same,"viability, T/C",[12],23.9%
same,"viability, T/C",[13],21.1%
same,"viability, T/C",[14],19%
same,"viability, T/C",[15],21.8%
same,"viability, T/C",[16],27%
same,"viability, T/C",[17],22.7%
same,"viability, T/C",[18],23.4%
same,"viability, T/C",[19],21.2%
same,"viability, T/C",[20],17.7%
same,"viability, T/C",[21],21%
same,"viability, T/C",[22],22.5%
same,"viability, T/C",[23],21.5%
same,"viability, T/C",[24],19.4%
same,"viability, T/C",[25],16.2%
same,"viability, T/C",[26],18.3%
same,"viability, T/C",[27],18.6%
same,"viability, T/C",[28],18.9%
same,"viability, T/C",[29],17%
same,"viability, T/C",[30],14.1%
same,"viability, T/C",[31],19.4%
same,"viability, T/C",[32],17.1%
same,"viability, T/C",[33],19.5%
same,"viability, T/C",[34],29.2%
same,"viability, T/C",[35],17.6%
same,"viability, T/C",[36],16.7%
